We go through 8 compounds from PMC9304232 (Epilepsia, 2022).

Like-named read-outs stand apart in the source and are kept apart here. A value given as a limit tells only on which side of the number the result lay.

Series [1] concerns mice with Scn8a (NaV1.6‐N1768D/+, NaV1.6‐R1872W/+) or Scn2a (NaV1.2‐Q54) variants. The following applies: Scn8a or Scn2a gain‐of‐function variants; ref [20], [21], [22]; cited from earlier work.
Series [2] has as its target T1, hNaV1.6 (Homo sapiens, UniProt Q9UQD0). In words: Peak INa use‐dependent block. It counts as cell-based. The note with it: for Peak INa UDB, 10 Hz, slope: Hill slope; for Peak INa UDB, 10 Hz, slope / Ratio to persistent INa (peak INa UDB) / Ratio to peak INa TB (peak INa UDB): hNaV1.6; for Ratio to persistent INa (peak INa UDB): UDB IC50 / persistent INa IC50; for Ratio to peak INa TB (peak INa UDB): preference of use‐dependent block over tonic block; for Use‐dependent block at a stimulation frequency of 10 Hz: hNaV1.6, Figure 2E,F.

Series [3] concerns the target T1, hNaV1.6. The series can be described thus: ATX‐II‐induced persistent INa, whole‐cell patch clamp. The following applies: for Persistent INa, slope: Hill slope of IC50 fit, hNaV1.6. In general terms: In patch-clamp work, channel activity is measured electrically.
Series [4] addresses T1, hNaV1.6. In words: Peak INa voltage‐dependent block. The note with it: for Peak INa VDB, slope: Hill slope; for Ratio to persistent INa (peak INa VDB): VDB IC50 / persistent INa IC50.
Series [5] has as its target T1, hNaV1.6. In words: Peak INa tonic block. It counts as cell-based. The note with it: for Peak INa TB, slope: Hill slope; for Peak INa TB, slope / Ratio to persistent INa (peak INa TB): hNaV1.6; for Ratio to persistent INa (peak INa TB): TB IC50 / persistent INa IC50.
For series [6], the system named is male CD‐1 mice. In words: Mouse maximal electroshock seizure. It counts as in vivo. The note with it: for EC50: Mus musculus; for MES ED50 (increasing latency to tonic extension seizures): PRAX‐562 po, CBZ and LTG ip. In general terms: In the maximal electroshock model the usual endpoint is tonic extension of the hind limbs.
In series [7] the test system is male CD‐1 mice. In words: Mouse spontaneous locomotor activity. It counts as in vivo. The following applies: for sLMA TD50: PRAX‐562 po, CBZ and LTG ip, dose reducing sLMA by 50%; for sLMA TC50, free brain: calculated free brain concentration.
Series [8] concerns male CD‐1 mice. The series can be described thus: Protective index. The following applies: for PI (plasma TC50/plasma EC50): based on free plasma concentrations. It counts as in vivo, mouse.
Series [9] has as its target T2, hNaV1.1 (Homo sapiens, UniProt P35498). The series can be described thus: Peak INa tonic block, patch clamp. The following applies: TB IC50 / persistent IC50. It counts as cell-based.
The target in series [10] is T3, hNaV1.2 (Homo sapiens, UniProt Q99250). In words: Peak INa tonic block, patch clamp. The following applies: TB IC50 / persistent IC50. It counts as cell-based.
Series [11] addresses T4, hNaV1.5 (Homo sapiens, UniProt Q14524). The series can be described thus: Peak INa tonic block, patch clamp. It counts as cell-based. The note with it: TB / persistent IC50.
Series [12] concerns the target T2, hNaV1.1. In words: Peak INa voltage‐dependent block, patch clamp. It counts as cell-based. The following applies: VDB IC50 / persistent IC50.
Series [13] addresses T3, hNaV1.2. In words: Peak INa voltage‐dependent block, patch clamp. It counts as cell-based. The note with it: VDB IC50 / persistent IC50.
In series [14] the target is T4, hNaV1.5. In words: Peak INa voltage‐dependent block, patch clamp. It counts as cell-based. The note with it: VDB IC50 / persistent IC50.
The test system of series [15] is hippocampal CA1 pyramidal neurons. The series can be described thus: Evoked action potential firing. It counts as cell-based. The note with it: wild‐type mouse CA1 neurons.
[16] abbreviates: male CD‐1 mice, po, total brain.

T1 sequence (Q9UQD0 whole entry): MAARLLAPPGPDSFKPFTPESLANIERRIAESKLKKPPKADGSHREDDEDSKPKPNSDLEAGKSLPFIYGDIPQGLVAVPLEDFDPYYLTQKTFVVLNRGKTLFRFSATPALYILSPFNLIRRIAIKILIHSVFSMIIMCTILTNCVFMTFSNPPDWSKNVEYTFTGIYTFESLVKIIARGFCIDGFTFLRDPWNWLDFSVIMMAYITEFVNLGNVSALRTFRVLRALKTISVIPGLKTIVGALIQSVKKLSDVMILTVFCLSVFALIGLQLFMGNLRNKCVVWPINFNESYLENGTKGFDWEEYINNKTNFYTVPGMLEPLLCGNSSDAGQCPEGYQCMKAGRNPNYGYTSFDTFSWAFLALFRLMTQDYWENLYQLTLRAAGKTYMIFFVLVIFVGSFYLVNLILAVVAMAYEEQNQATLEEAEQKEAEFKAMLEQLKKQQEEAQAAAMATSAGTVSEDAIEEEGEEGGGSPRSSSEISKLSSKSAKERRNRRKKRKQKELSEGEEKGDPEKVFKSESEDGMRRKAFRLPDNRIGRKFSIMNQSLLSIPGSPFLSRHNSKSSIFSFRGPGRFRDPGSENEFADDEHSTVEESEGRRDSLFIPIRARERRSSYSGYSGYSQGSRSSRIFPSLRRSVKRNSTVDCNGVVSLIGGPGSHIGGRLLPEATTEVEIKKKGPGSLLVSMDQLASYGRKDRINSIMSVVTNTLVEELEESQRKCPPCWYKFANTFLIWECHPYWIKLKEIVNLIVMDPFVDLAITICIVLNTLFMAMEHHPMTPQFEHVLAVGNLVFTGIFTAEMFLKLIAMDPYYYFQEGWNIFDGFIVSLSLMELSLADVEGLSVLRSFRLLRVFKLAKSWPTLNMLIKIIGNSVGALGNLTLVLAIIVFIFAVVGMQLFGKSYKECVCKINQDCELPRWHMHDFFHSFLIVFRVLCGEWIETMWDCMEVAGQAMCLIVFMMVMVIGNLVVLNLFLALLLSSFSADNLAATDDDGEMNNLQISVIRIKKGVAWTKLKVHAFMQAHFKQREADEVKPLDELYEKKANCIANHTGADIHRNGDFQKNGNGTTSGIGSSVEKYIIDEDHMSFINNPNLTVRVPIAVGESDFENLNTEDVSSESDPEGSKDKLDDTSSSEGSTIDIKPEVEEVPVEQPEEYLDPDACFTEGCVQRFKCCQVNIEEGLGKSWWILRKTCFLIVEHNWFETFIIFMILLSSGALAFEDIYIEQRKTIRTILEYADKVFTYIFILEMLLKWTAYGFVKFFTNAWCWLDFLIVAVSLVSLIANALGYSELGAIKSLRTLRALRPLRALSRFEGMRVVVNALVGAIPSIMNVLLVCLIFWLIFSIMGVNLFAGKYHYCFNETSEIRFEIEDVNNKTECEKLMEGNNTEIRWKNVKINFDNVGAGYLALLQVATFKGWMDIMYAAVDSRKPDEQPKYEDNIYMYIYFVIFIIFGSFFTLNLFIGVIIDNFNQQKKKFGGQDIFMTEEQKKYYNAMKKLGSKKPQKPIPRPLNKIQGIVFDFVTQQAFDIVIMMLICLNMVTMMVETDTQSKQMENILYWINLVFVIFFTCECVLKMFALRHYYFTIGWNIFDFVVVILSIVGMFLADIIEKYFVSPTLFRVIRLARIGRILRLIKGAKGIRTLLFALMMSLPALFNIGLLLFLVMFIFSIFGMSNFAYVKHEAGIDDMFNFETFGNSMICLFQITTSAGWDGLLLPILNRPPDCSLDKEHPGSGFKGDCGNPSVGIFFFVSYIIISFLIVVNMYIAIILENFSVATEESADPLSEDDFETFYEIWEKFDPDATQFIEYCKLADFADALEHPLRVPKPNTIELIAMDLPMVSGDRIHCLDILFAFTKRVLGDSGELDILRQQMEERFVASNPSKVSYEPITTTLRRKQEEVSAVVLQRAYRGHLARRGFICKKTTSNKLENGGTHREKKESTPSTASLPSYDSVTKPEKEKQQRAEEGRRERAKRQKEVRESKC
T3 sequence (Q99250 whole entry): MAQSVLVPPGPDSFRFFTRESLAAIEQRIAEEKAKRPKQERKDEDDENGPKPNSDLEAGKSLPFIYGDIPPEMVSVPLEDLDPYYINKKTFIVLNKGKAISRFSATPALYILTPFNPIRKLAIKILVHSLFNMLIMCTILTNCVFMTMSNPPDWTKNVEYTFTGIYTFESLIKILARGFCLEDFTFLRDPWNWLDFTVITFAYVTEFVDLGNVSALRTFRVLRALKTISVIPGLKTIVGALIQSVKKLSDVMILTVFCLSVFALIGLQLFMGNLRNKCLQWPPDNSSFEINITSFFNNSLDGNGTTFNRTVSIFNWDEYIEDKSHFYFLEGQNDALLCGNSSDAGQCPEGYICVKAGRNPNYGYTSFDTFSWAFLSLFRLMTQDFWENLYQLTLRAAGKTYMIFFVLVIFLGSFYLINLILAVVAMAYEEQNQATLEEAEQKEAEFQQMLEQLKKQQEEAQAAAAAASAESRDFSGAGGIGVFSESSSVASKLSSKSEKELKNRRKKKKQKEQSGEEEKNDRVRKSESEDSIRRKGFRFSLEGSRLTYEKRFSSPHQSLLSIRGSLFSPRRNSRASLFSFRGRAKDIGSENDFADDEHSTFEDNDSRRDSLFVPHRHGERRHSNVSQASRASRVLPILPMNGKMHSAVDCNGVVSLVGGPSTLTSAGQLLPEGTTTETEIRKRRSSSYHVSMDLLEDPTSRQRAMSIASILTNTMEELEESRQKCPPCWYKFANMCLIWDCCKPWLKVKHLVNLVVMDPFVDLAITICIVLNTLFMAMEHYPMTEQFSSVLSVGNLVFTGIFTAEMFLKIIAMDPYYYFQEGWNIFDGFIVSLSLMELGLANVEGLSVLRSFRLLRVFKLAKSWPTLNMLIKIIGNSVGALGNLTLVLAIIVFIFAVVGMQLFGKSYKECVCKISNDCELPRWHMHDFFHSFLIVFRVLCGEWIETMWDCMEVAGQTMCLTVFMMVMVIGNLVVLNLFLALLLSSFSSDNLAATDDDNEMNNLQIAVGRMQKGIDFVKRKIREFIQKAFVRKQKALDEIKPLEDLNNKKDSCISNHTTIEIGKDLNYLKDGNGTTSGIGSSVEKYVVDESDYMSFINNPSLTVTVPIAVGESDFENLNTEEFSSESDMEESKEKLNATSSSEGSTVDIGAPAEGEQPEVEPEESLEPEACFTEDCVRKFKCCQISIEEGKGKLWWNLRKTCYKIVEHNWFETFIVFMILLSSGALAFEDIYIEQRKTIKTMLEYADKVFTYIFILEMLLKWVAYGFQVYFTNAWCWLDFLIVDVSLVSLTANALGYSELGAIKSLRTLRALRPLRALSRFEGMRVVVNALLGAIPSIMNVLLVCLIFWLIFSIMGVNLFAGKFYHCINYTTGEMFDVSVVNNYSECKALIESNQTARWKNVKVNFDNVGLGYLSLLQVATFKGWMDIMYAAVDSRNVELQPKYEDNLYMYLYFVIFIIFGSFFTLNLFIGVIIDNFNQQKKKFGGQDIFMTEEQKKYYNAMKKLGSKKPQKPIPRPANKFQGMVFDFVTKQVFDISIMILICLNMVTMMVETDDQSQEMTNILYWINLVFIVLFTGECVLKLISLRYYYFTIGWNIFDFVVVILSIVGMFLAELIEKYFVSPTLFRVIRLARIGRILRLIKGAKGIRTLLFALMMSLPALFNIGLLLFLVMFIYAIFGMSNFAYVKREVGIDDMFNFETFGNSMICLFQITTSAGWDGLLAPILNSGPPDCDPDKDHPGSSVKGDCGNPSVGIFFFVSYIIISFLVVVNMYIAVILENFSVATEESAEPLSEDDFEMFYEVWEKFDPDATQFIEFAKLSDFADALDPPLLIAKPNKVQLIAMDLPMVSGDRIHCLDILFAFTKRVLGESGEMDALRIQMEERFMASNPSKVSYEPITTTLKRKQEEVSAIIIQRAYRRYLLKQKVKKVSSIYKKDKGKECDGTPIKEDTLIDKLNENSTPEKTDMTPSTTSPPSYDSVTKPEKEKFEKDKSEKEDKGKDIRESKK

With `FC(F)(F)Oc1ccc(-c2ccc3nnc(C(F)(F)F)n3c2)cc1` [PRAX‐330], the “Seizures and premature death in NaV DEE mouse models” value in series [1] is “protected mice from seizures and premature death”.

As to `O=C1NC(=O)C(c2ccccc2)(c2ccccc2)N1` [Phenytoin], at hNaV1.6 [2], the “Peak INa UDB, 10 Hz, slope” value is “.6” and the “Ratio to persistent INa (peak INa UDB)” value is recorded as 15. Further, the “Persistent INa, slope” value on hNaV1.6 [3] is reported as “.8”. Further, at hNaV1.6 [4], the “Peak INa VDB, slope” value was found to be 1.0 and the “Ratio to persistent INa (peak INa VDB)” value is given as “.8”.

Take `NC(=O)O[C@@H](Cn1ncnn1)c1ccccc1Cl` [Cenobamate]: on hNaV1.6 [5], the “Peak INa TB, slope” value amounted to 1.1 and the “Ratio to persistent INa (peak INa TB)” value turned out to be 24. On hNaV1.6 [2], the “Peak INa UDB, 10 Hz, slope” value is on record as “.7”; the “Ratio to persistent INa (peak INa UDB)” value is listed as 11; the “Ratio to peak INa TB (peak INa UDB)” value was found to be 2.3. Also, the “Persistent INa, slope” value on hNaV1.6 [3] is listed as 1.1. Moreover, at hNaV1.6 [4], the “Peak INa VDB, slope” value is “.9” and the “Ratio to persistent INa (peak INa VDB)” value is reported as “.9”.

Regarding `NC(=O)N1c2ccccc2CC(=O)c2ccccc21` [Oxcarbazepine], at hNaV1.6 [5], the “Peak INa TB, slope” value was found to be 1.7 and the “Ratio to persistent INa (peak INa TB)” value is 8. Besides, the “Persistent INa, slope” value at hNaV1.6 [3] was determined as 1.0. For the same compound, at hNaV1.6 [4], the “Peak INa VDB, slope” value amounted to 1.1 and the “Ratio to persistent INa (peak INa VDB)” value is given as “.3”.

One may read the EC50 as the concentration that produces a half-maximal response. By IC50 is commonly meant the concentration that inhibits the measured activity by half. Consider `NC(=O)N1c2ccccc2C=Cc2ccccc21` [Carbamazepine, carbamazepine], for which the “Peak INa TB, slope” value at hNaV1.6 [5] turned out to be 1.0. Also, at hNaV1.6 [2], the “Peak INa UDB, 10 Hz, slope” value was “.9” and the “Use‐dependent block at a stimulation frequency of 10 Hz” value is listed as “not observed”. The concentration giving a half-maximal response (EC50) in the series on male CD‐1 mice [6] (read-out: MES EC50, free brain) came out at 2.41 µM. Moreover, the “MES ED50 (increasing latency to tonic extension seizures)” value in the series with male CD‐1 mice [6] (male CD‐1 mice, listed as CBZ) is reported as 3.4 mg/kg. For the same compound, the “Sedation/sLMA at the dose required for complete seizure prevention” value in the series on male CD‐1 mice [7] (ip) is reported as “significant reduction in sLMA”. Moreover, the “sLMA TD50” value with male CD‐1 mice [7] (male CD‐1 mice, listed as CBZ) came out at 26.5 mg/kg. Further, in the series on male CD‐1 mice [7] (male CD‐1 mice), the “sLMA TC50, free brain” value is given as 14 350 nmol·L^–1. Also, in the series with male CD‐1 mice [8], the “PI (plasma TC50/plasma EC50)” value turned out to be 3.4. The “Persistent INa, slope” value on hNaV1.6 [3] turned out to be 1.1. Moreover, the 50% inhibitory concentration (IC50) on hNaV1.6 [3] (Persistent INa, IC50, hNaV1.6, 200 nmol·L^–1 ATX‐II, holding −120 mV) was 77.5 µM. The “Peak INa VDB, slope” value at hNaV1.6 [4] is “.9”.

In the case of `CCOC(F)(F)c1nnc2cnc(-c3cnc(OCC(F)(F)F)c(F)c3)cn12` [PRAX‐562, 3‐[ethoxydifluoromethyl]‐6‐[5‐fluoro‐6‐(2,2,2‐trifluoroethoxy)pyridin‐3‐yl]‐[1,2,4]triazolo[4,3‐a]pyrazine], on hNaV1.6 [5], the “Peak INa TB, slope” value is recorded as 1.0 and the “Ratio to persistent INa (peak INa TB)” value worked out at 60. On hNaV1.6 [5] (Peak INa TB, IC50, hNaV1.6 tonic block, .1 Hz), this compound registered a half-maximal inhibitory concentration (IC50) of 8.47 µM. Besides, at hNaV1.6 [2], the “Peak INa UDB, 10 Hz, slope” value is 1.3; the “Ratio to persistent INa (peak INa UDB)” value was 2; the “Ratio to peak INa TB (peak INa UDB)” value is reported as 31. For the same compound, on hNaV1.1 [9], the “Ratio to Persistent INa (Peak INa TB), hNaV1.1” value is 173. For the same compound, the “Ratio to Persistent INa (Peak INa TB), hNaV1.2” value at hNaV1.2 [10] was 80. For the same compound, the “Ratio to Persistent INa (Peak INa TB), hNaV1.5” value at hNaV1.5 [11] is on record as > 174. The “Ratio to Persistent INa (Peak INa VDB), hNaV1.1” value on hNaV1.1 [12] came to 6.3. In addition, the “Ratio to Persistent INa (Peak INa VDB), hNaV1.2” value on hNaV1.2 [13] is 8.2. Moreover, the “Ratio to Persistent INa (Peak INa VDB), hNaV1.5” value at hNaV1.5 [14] is given as 5.8. Besides, the “Intrinsic excitability, number of evoked APs” value in series [15] (.3 µmol·L^–1) was “significantly reduced”. The AP amplitude entry in series [15] (.3 µmol·L^–1, +200 pA) is “minimal effects”. Moreover, the “Mice that did not exhibit tonic seizures” value in the series on male CD‐1 mice [6] (10 mg/kg po, 30 min before MES) is 11 of 12. In addition, the EC50 with male CD‐1 mice [6] (po, read-out: MES EC50, plasma) was 0.0901 µg/mL. The EC50 in the series with male CD‐1 mice [6] (po, read-out: MES EC50, plasma, free) stood at 0.0179 µM. Also, the concentration giving a half-maximal response (EC50) in the series with male CD‐1 mice [6] (read-out: MES EC50, free brain) was found to be 0.0043 µM. Moreover, the “MES EC50, brain” value with male CD‐1 mice [6] (setting [16]) came out at 116 ng/g. In addition, in the series with male CD‐1 mice [7] (10 mg/kg po), the “Effect on locomotor function” value was “no effect”. Further, the “Distance moved in sLMA” value in the series with male CD‐1 mice [7] (20 and 40 mg/kg po) is recorded as “reductions in the distance moved”. In addition, the “sLMA TC50, plasma, free” value in the series with male CD‐1 mice [7] (male CD‐1 mice, po, free plasma) came out at 308.9 nmol·L^–1. Further, in the series on male CD‐1 mice [7] (setting [16]), the “sLMA TC50, brain” value is 1899 ng/g. The “sLMA TC50, plasma” value with male CD‐1 mice [7] (male CD‐1 mice, po, total plasma) amounted to 1.553 µg/mL. In the series with male CD‐1 mice [7] (male CD‐1 mice), the “sLMA TC50, free brain” value was 69.7 nmol·L^–1. In the series on male CD‐1 mice [8] (acute, MES and sLMA models), the “PI wider compared to CBZ and LTG” value came out at 3 ×. For the same compound, the “PI (plasma TC50/plasma EC50)” value in the series on male CD‐1 mice [8] was ~17. Further, on hNaV1.6 [3], the “Persistent INa, slope” value was 1.2. On hNaV1.6 [4], the “Peak INa VDB, slope” value came to 1.0 and the “Ratio to persistent INa (peak INa VDB)” value is reported as 2.2.

For `Nc1nnc(-c2cccc(Cl)c2Cl)c(N)n1` [Lamotrigine, lamotrigine], the “Peak INa TB, slope” value on hNaV1.6 [5] is “.8”. Also, on hNaV1.6 [2], the “Peak INa UDB, 10 Hz, slope” value amounted to 1.0 and the “Use‐dependent block at a stimulation frequency of 10 Hz” value is reported as “not observed”. Further, in the series with male CD‐1 mice [6] (read-out: MES EC50, free brain), the 50% effective concentration (EC50) turned out to be 2.75 µM. Moreover, the “MES ED50 (increasing latency to tonic extension seizures)” value with male CD‐1 mice [6] (male CD‐1 mice, listed as LTG) was found to be 5.0 mg/kg. In addition, in the series with male CD‐1 mice [7] (male CD‐1 mice, listed as LTG), the “sLMA TD50” value is 37.6 mg/kg. The “sLMA TC50, free brain” value in the series on male CD‐1 mice [7] (male CD‐1 mice) is 12 853 nmol·L^–1. Also, the “Persistent INa, slope” value on hNaV1.6 [3] is 1.0. Moreover, the “Peak INa VDB, slope” value at hNaV1.6 [4] is recorded as “.9”.

For `COC[C@@H](NC(C)=O)C(=O)NCc1ccccc1` [Lacosamide], at hNaV1.6 [2], the “Peak INa UDB, 10 Hz, slope” value is 1.3 and the “Ratio to persistent INa (peak INa UDB)” value was “.8”. Further, the “Persistent INa, slope” value on hNaV1.6 [3] was “.9”. Moreover, at hNaV1.6 [4], the “Peak INa VDB, slope” value is given as 1.2 and the “Ratio to persistent INa (peak INa VDB)” value is recorded as “.3”.
